In patent US20260258086A1 (priority 2021, published 2026):
Read-outs that look alike come from different tables or passages of the source. Numbered stars: 1 amine (or outer) side, 2 acyl side, 3 side chain; on linkers, the order of the positions; unused ones are H or OH. Bridge positions count the residues as written; N and C are the ends. Square brackets hold non-standard residues; d marks the D form. Peptide text beside a SMILES is read from it. X4 = O=C([C@@H](Cc1c([*:3])[nH]c2ccc(O)cc12)N[*:1])[*:2]; X2 = O=C([C@@H](Cc1c([*:3])[nH]c2ccccc12)N[*:1])[*:2]; Ile(4R-OH,5-OH) = C[C@H]([C@H](N)C(=O)O)[C@@H](O)CO; X5 = C[C@@H](S[*:3])[C@H](N[*:1])C(=O)[*:2]; X1 = C[C@H](S[*:3])[C@H](N[*:1])C(=O)[*:2]; X3 = CS[C@H](C)[C@H](N[*:1])C(=O)[*:2]; Gly(cPent) = N[C@H](C(=O)O)C1CCCC1; Nva(3-Et) = CCC(CC)[C@H](N)C(=O)O; Hyp = O=C(O)[C@@H]1C[C@@H](O)CN1; Pen = CC(C)(S)[C@H](N)C(=O)O

What was measured:
calf thymus RNAP II = calf thymus RNAP II (Bos taurus, UniProt G3MZY8); details: cited from earlier work
white mice = details: mouse, in vivo; cited from earlier work
Pol II = Pol II (Homo sapiens, UniProt P24928); assay: biochemical; assay type: biochemical
SK-BR-3 cells = assay type: cell-based; details: read-out: IC50, cell viability on SK-BR-3 cells

| Molecule | LD50 (white mice) | IC50 (CHO cells) | IC50 (HEK293 cells) | other results |
| --- | --- | --- | --- | --- |
| CC[C@H](C)[C@@H]1NC(=O)CNC(=O)[C@@H]2Cc3c([nH]c4ccccc34)[S+]([O-])C[C@H](NC(=O)CNC1=O)C(=O)N[C@@H](CC(=O)O)C(=O)N1C[C@H](O)C[C@H]1C(=O)N[C@@H]([C@@H](C)[C@@H](O)CO)C(=O)N2 (stereo partly shown) [amanin] | 0.3 mg/kg | – | – | Ki (calf thymus RNAP II): 5 nM |
| CC[C@H](C)[C@@H]1NC(=O)CNC(=O)[C@H]2Cc3c([nH]c4ccccc34)SC[C@H](NC(=O)CNC1=O)C(=O)N[C@@H](CC(N)=O)C(=O)N1C[C@H](O)C[C@H]1C(=O)N[C@@H]([C@@H](C)[C@@H](O)CO)C(=O)N2 [Compound I(ix), aza-Gly^5-Dideoxyamanitin] (cyclo(CN[Hyp][Ile(4R-OH,5-OH)][X2]GIG); thioether 1-5) | – | 1900 ± 520 nM | 210 ± 50 nM | cytotoxicity compared with α-amanitin, in words (CHO cells): only a two-fold reduction in cytotoxicity |
| CC[C@H](C)[C@@H]1NC(=O)CNC(=O)[C@H]2Cc3c([nH]c4ccccc34)S[C@@H](C)[C@H](NC(=O)CNC1=O)C(=O)N[C@@H](CC(N)=O)C(=O)N1C[C@H](O)C[C@H]1C(=O)N[C@@H]([C@@H](C)[C@@H](O)CO)C(=O)N2 [Compound I(i), (2R,3S)-β-Methyl-Cys^8-Dideoxyamanitin] (cyclo(GIG[X1]N[Hyp][Ile(4R-OH,5-OH)][X2]); thioether 4-8) | – | 610 ± 170 nM | 240 ± 50 nM | – |
| amanullinic acid | >20 mg/kg | – | – | – |
| ε-amanitin | 0.3 to 0.6 mg/kg | – | – | – |
| CC[C@H](C)[C@@H]1NC(=O)CNC(=O)[C@H]2Cc3c([nH]c4ccccc34)S[C@H](C)[C@H](NC(=O)CNC1=O)C(=O)N[C@@H](CC(N)=O)C(=O)N1C[C@H](O)C[C@H]1C(=O)N[C@@H]([C@@H](C)[C@@H](O)CO)C(=O)N2 [Compound I(ii), (2R,3R)-β-Methyl-Cys^8-Dideoxyamanitin] (cyclo(GIG[X5]N[Hyp][Ile(4R-OH,5-OH)][X2]); thioether 4-8) | – | > 15000 nM | – | Ki (Pol II): > 1000 nM |
| CC[C@H](C)[C@@H]1NC(=O)CNC(=O)[C@@H]2Cc3c([nH]c4cc(O)ccc34)[S+]([O-])C[C@H](NC(=O)CNC1=O)C(=O)N[C@@H](CC(=O)O)C(=O)N1CCC[C@H]1C(=O)N[C@@H]([C@@H](C)CC)C(=O)N2 (stereo partly shown) [proamanullin] | >20 mg/kg | – | – | – |
| β-amanitin | 0.5 mg/kg | – | – | Ki (calf thymus RNAP II; read-out: Ki): 2.5 nM |
| CC[C@H](C)[C@@H]1NC(=O)CNC(=O)[C@@H]2Cc3c([nH]c4cc(O)ccc34)[S+]([O-])C[C@H](NC(=O)CNC1=O)C(=O)N[C@@H](CC(N)=O)C(=O)N1C[C@H](O)C[C@H]1C(=O)N[C@@H]([C@@H](C)CC)C(=O)N2 (stereo partly shown) [amanullin] | >20 mg/kg | – | – | Ki (calf thymus RNAP II): 10 nM |
| γ-amanitin | 0.2 mg/kg | – | – | Ki (calf thymus RNAP II; read-out: Ki): 5 nM |
| C[C@H]([C@@H]1NC(=O)[C@@H]2C[C@@H](O)CN2C(=O)[C@H](CC(N)=O)NC(=O)[C@@H]2CSc3[nH]c4ccccc4c3C[C@@H](NC1=O)C(=O)NCC(=O)N[C@@H](C1CCCC1)C(=O)NCC(=O)N2)[C@@H](O)CO [Compound I(viii), Cyclopentylgly^6-Dideoxyamanitin] (cyclo(CN[Hyp][Ile(4R-OH,5-OH)][X2]G[Gly(cPent)]G); thioether 1-5) | – | 1700 ± 270 nM | – | cytotoxicity compared with α-amanitin, in words (CHO cells): considerably diminished toxicity |
| CC[C@H](C)[C@@H]1NC(=O)CNC(=O)[C@@H]2Cc3c([nH]c4ccccc34)[S+]([O-])C[C@H](NC(=O)CNC1=O)C(=O)N[C@@H](CC(N)=O)C(=O)N1C[C@H](O)C[C@H]1C(=O)N[C@@H]([C@@H](C)[C@@H](O)CO)C(=O)N2 (stereo partly shown) [amaninamide] | 20 mg/kg | – | – | Ki (calf thymus RNAP II): 5 nM |
| CO[C@H](C)[C@@H]1NC(=O)CNC(=O)[C@H]2Cc3c([nH]c4ccccc34)SC[C@H](NC(=O)CNC1=O)C(=O)N[C@@H](CC(N)=O)C(=O)N1C[C@H](O)C[C@H]1C(=O)N[C@@H]([C@@H](C)[C@@H](O)CO)C(=O)N2 [Compound I(vi), Oxo-Ile^6-Dideoxyamanitin] (cyclo(CN[Hyp][Ile(4R-OH,5-OH)][X2]GT(Me)G); thioether 1-5) | – | > 15000 nM | – | cytotoxicity compared with α-amanitin, in words (CHO cells): no observable cytotoxicity |
| CC[C@H](C)[C@@H]1NC(=O)CNC(=O)[C@H]2Cc3c([nH]c4ccccc34)SC(C)(C)[C@H](NC(=O)CNC1=O)C(=O)N[C@@H](CC(N)=O)C(=O)N1C[C@H](O)C[C@H]1C(=O)N[C@@H]([C@@H](C)[C@@H](O)CO)C(=O)N2 [Compound I(iii), Pen^8-Dideoxyamanitin] (cyclo(GIG[Pen]N[Hyp][Ile(4R-OH,5-OH)][X2]); thioether 4-8) | – | 2700 ± 590 nM | – | cytotoxicity compared with α-amanitin, in words (CHO cells): intermediately toxic |
| CCC(CC)[C@@H]1NC(=O)CNC(=O)[C@H]2Cc3c([nH]c4ccccc34)SC[C@H](NC(=O)CNC1=O)C(=O)N[C@@H](CC(N)=O)C(=O)N1C[C@H](O)C[C@H]1C(=O)N[C@@H]([C@@H](C)[C@@H](O)CO)C(=O)N2 [Compound I(vii), Diethylala^6-Dideoxyamanitin] (cyclo(CN[Hyp][Ile(4R-OH,5-OH)][X2]G[Nva(3-Et)]G); thioether 1-5) | – | 380 ± 110 nM | 170 ± 30 nM | – |
| CCC(CC)[C@@H]1NC(=O)CNC(=O)[C@H]2Cc3c([nH]c4ccccc34)S[C@@H](C)[C@H](NC(=O)CNC1=O)C(=O)N[C@@H](CC(N)=O)C(=O)N1C[C@H](O)C[C@H]1C(=O)N[C@@H]([C@@H](C)[C@@H](O)CO)C(=O)N2 [Compound I(xii), Diethylala^6, (2R,3S)-β-Methyl-Cys^8-Dideoxyamanitin] (cyclo(G[Nva(3-Et)]G[X1]N[Hyp][Ile(4R-OH,5-OH)][X2]); thioether 4-8) | – | 290 ± 70 nM | 110 ± 30 nM | toxicity relative to α-amanitin (times / -fold as toxic) (CHO cells): 2; cytotoxicity, in words (HEK293 cells): increased cytotoxicity; toxicity relative to α-amanitin (times / -fold as toxic) (HEK293 cells): 5; IC50 (HeLa cells): 2400 ± 300 nM; cytotoxicity, in words (HeLa cells): increased cytotoxicity; IC50 (HepG2 cells): 5700 ± 1100 nM |
| CCC(CC)[C@@H]1NC(=O)CNC(=O)[C@H]2Cc3c([nH]c4ccc(O)cc34)S[C@@H](C)[C@H](NC(=O)CNC1=O)C(=O)N[C@@H](CC(N)=O)C(=O)N1C[C@H](O)C[C@H]1C(=O)N[C@@H]([C@@H](C)[C@@H](O)CO)C(=O)N2 [Compound I(xiii), 5-OH Trp^4, Diethylala^6, (2R,3S)-β-Methyl-Cys^8-Deoxyamanitin] (cyclo(G[Nva(3-Et)]G[X1]N[Hyp][Ile(4R-OH,5-OH)][X4]); thioether 4-8) | – | 1170 ± 370 nM | 240 ± 50 nM | – |
| Herceptin | – | – | – | IC50 (SK-BR-3 cells): > 1000 nM |
| CC[C@H](C)[C@@H]1NC(=O)CNC(=O)[C@H]2Cc3c([nH]c4ccccc34)SC[C@H](NC(=O)CNC1=O)C(=O)N[C@@H](CC(N)=O)C(=O)N1C[C@H](O)C[C@H]1C(=O)N[C@@H]([C@@H](C)[C@@H](O)CO)C(=O)N2 [Compound I(iv), aza-Gly^7-Dideoxyamanitin] (cyclo(CN[Hyp][Ile(4R-OH,5-OH)][X2]GIG); thioether 1-5) | – | 170 ± 30 nM | 260 ± 70 nM | cytotoxicity, in words (HEK293 cells): increased cytotoxicity; IC50 (HeLa cells): 3300 ± 390 nM; cytotoxicity, in words (HeLa cells): increased cytotoxicity; IC50 (HepG2 cells): 5600 ± 780 nM |
| CCC(CC)[C@@H]1NC(=O)CNC(=O)[C@H]2Cc3c([nH]c4ccc(O)cc34)SC[C@H](NC(=O)CNC1=O)C(=O)N[C@@H](CC(N)=O)C(=O)N1C[C@H](O)C[C@H]1C(=O)N[C@@H]([C@@H](C)[C@@H](O)CO)C(=O)N2 [Compound I(xi), 5-OH Trp^4, Diethylala^6-Deoxyamanitin] (cyclo(CN[Hyp][Ile(4R-OH,5-OH)][X4]G[Nva(3-Et)]G); thioether 1-5) | – | 1200 ± 330 nM | 80 ± 10 nM | – |
| CS[C@H](C)[C@@H]1NC(=O)CNC(=O)[C@H]2Cc3c([nH]c4ccccc34)SC[C@H](NC(=O)CNC1=O)C(=O)N[C@@H](CC(N)=O)C(=O)N1C[C@H](O)C[C@H]1C(=O)N[C@@H]([C@@H](C)[C@@H](O)CO)C(=O)N2 [Compound I(v), Thia-Ile^6-Dideoxyamanitin] (cyclo(CN[Hyp][Ile(4R-OH,5-OH)][X2]G[X3]G); thioether 1-5) | – | 4400 ± 730 nM | 830 ± 150 nM | Pol II / transcription inhibition, in words (Pol II): high Pol II inhibition; IC50 (HeLa cells): 16000 ± 2300 nM; IC50 (HepG2 cells): > 20000 nM |
